These results are taken from patent US20240000806A1, “METHODS AND MATERIALS FOR INHIBITING CB1 ACTIVITY” (University of Pittsburgh - Of the Commonwealth System of …, priority 2020, published 2024).

pIC50: −log10 of the molar value.

CB1 (CNR1), sequence (P21554 whole entry): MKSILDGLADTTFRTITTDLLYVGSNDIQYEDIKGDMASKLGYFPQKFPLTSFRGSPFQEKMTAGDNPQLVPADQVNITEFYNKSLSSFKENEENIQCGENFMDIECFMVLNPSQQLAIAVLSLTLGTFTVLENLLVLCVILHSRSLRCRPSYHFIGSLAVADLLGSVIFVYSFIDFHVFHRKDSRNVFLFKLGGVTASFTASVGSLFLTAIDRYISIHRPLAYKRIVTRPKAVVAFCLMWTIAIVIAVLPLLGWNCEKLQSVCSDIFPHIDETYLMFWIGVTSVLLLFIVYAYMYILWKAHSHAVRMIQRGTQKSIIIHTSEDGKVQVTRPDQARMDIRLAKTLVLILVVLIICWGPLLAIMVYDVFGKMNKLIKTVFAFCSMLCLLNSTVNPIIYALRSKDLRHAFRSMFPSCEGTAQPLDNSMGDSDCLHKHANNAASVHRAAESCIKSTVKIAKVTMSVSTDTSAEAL

The target of this test is CB1 (CNR1) (Homo sapiens, UniProt P21554). Nature of the test: cAMP CNR1 Hunter cell line antagonist assay (CB1 assay). The class given is cell-based. The settings on record: antagonist mode, cAMP CNR1 Hunter cells, EC80 agonist; read-out: CB1 assay, Efficacy (IC50). As for the experimental part:
cAMP CNR1 Hunter cell line (Eurofins DiscoveryX) were expanded from freezer stocks and seeded in a total volume of 20 μL into white walled, 384-well microplates and incubated at 37° C. for the appropriate time prior to testing. For antagonist determination, cell media was aspirated from cells and replaced with 10 μL 1:1 HBSS/Hepes:cAMP XS+Ab reagent. 5 μL of 4× compound was added to the cells and incubated at 37° C. for 30 minutes. 5 μL of 4× EC80 agonist was added to cells and incubated at 37° C. for 30 minutes. After appropriate compound incubation, assay signal was generated through incubation with 20 μL cAMP XS+ED/CL lysis cocktail for one hour followed by incubation with 20 μL cAMP XS+EA reagent for three hours at room temperature. Microplates were read following signal generation with a PerkinElmer Envision™ instrument for chemiluminescent signal detection. Compound activity (IC50) was analyzed using CBIS data analysis suite (ChemInnovation, CA).
Turning to `CCc1ccc(NS(=O)(=O)c2cc3c(cc2Br)NC(=O)C(C)O3)cc1` (stereo not drawn) [BC19216], the pIC50 was above 6.00. For `CCC1Oc2cc(S(=O)(=O)NCc3ccc(OC(F)(F)F)cc3)c(Br)cc2NC1=O` (stereo not drawn) [BC19369], the pIC50 was at most 4.60. For the compound `CC1C(=O)Nc2ccc(S(=O)(=O)N3CCCC3)cc2N1C` (stereo not drawn) [BC19296], the pIC50 was 4.60 to 6.00.

On to `Cc1ccc(NS(=O)(=O)c2cc(Br)cc3c2OCCNC3=O)cc1` [BC19612], for which the negative logarithm of the IC50 (pIC50) is at most 4.60. Regarding `CCC1Oc2c(cc(Br)cc2S(=O)(=O)NC2CCCCC2)NC1=O` (stereo not drawn) [BC19233], the pIC50 is at most 4.60. Take `O=C1NCCOc2c1cc(Br)cc2S(=O)(=O)Nc1ccc(F)c(F)c1` [BC19551]: the negative-log IC50 (pIC50) is at most 4.60. With `CCC1Oc2cc(S(=O)(=O)Nc3ccc(Cl)cc3)c(Cl)cc2NC1=O` (stereo not drawn) [BC19739] the figure was 4.60 to 6.00. The figure for `O=C1CCOc2cc(S(=O)(=O)Nc3ccc(F)cc3F)c(Br)cc2N1` [BC19693] is 4.60 to 6.00; for `CC1Oc2c(cc(Br)cc2S(=O)(=O)Nc2ccc(F)cc2Cl)N(C)C1=O` (stereo not drawn) [BC19908] it is at most 4.60; for `CC1Nc2cc(S(=O)(=O)N3CCCC3)ccc2NC1=O` (stereo not drawn) [BC19235] it is at most 4.60. With `CC1Oc2c(cc(Br)cc2S(=O)(=O)N2CCN(C)CC2)NC1=O` (stereo not drawn) [BC19228] the figure was 4.60 to 6.00. Take `CCOc1ccc(NS(=O)(=O)c2cc3c(cc2Cl)NC(=O)C(C)O3)cc1` (stereo not drawn) [BC19281]: the pIC50 was at most 4.60.

Consider `CC(C)CC1Oc2cc(S(=O)(=O)Nc3ccccc3)c(Br)cc2NC1=O` (stereo not drawn) [BC19762], for which the negative-log IC50 (pIC50) is at most 4.60.

For `CCC1Oc2cc(S(=O)(=O)Nc3ccc(C)cc3)c(Cl)cc2NC1=O` (stereo not drawn) [BC19753], the negative-log IC50 (pIC50) is 4.60 to 6.00.

For the compound `COc1ccc(NS(=O)(=O)c2cc(S(C)(=O)=O)cc3c2OCC(=O)N3)cc1` [BC19485], the pIC50 was at most 4.60. The figure for `CCC1Oc2c(cc(Br)cc2S(=O)(=O)Nc2cccc(F)c2)NC1=O` (stereo not drawn) [BC19231] is at most 4.60; for `CCNS(=O)(=O)c1cc2c(cc1Cl)NC(=O)C(C)O2` (stereo not drawn) [BC19209] it is at most 4.60. With `CCC1Oc2cc(S(=O)(=O)Nc3ccc(F)cc3F)c(Br)cc2N(C)C1=O` (stereo not drawn) [BC19914] the figure was 4.60 to 6.00. As for `CC(=O)c1cccc(NS(=O)(=O)c2cc3c(cc2C)NC(=O)CO3)c1` [BC19132], the pIC50 is at most 4.60. The figure for `CC(C)CC1Oc2c(cc(Br)cc2S(=O)(=O)Nc2ccccc2)NC1=O` (stereo not drawn) [BC19761] is 4.60 to 6.00; for `Cc1ccc(NS(=O)(=O)c2cc3c(cc2C)NC(=O)CO3)cc1` [BC19134] it is above 6.00. The figure for `N#Cc1ccc(NS(=O)(=O)c2cc(Br)cc3c2OCCNC3=O)cc1` [BC19615] is at most 4.60.

Turning to `Cc1ccc(NS(=O)(=O)c2cc(Cl)cc3c2OCC(=O)N3)cc1Cl` [BC19176], the pIC50 was above 6.00. As for `CCc1cccc(NS(=O)(=O)c2cc(S(C)(=O)=O)cc3c2OCC(=O)N3)c1` [BC19487], the pIC50 was at most 4.60. The figure for `CC1Oc2c(cc(Br)cc2S(=O)(=O)NCc2ccc(F)cc2F)NC1=O` (stereo not drawn) [BC19362] is at most 4.60; for `CCC1Oc2cc(S(=O)(=O)Nc3cccc(C(C)=O)c3)c(Cl)cc2NC1=O` (stereo not drawn) [BC19282] it is 4.60 to 6.00; for `O=C1NCCOc2c1cc(Br)cc2S(=O)(=O)Nc1cccc(F)c1` [BC19610] it is 4.60 to 6.00. In the case of `CCC1Oc2cc(S(=O)(=O)Nc3ccccc3)c(Br)cc2N(C)C1=O` (stereo not drawn) [BC19928], the negative-log IC50 (pIC50) is at most 4.60. With `CCC1Oc2cc(S(=O)(=O)Nc3ccc(C(F)(F)F)cc3Cl)c(Br)cc2NC1=O` (stereo not drawn) [BC19371] the figure was at most 4.60; with `CCOc1ccc(NS(=O)(=O)c2cc(Cl)cc3c2OC(C)C(=O)N3)cc1` (stereo not drawn) [BC19355], 4.60 to 6.00; with `COc1ccc(NS(=O)(=O)c2cc(Br)cc3c2OCCC(=O)N3)cc1Cl` [BC19688], 4.60 to 6.00.

`CCC1Oc2c(cc(Br)cc2S(=O)(=O)Nc2ccc(C)c(Cl)c2)N(C)C1=O` (stereo not drawn) [BC19937]: the pIC50 is at most 4.60. Regarding `CCc1cccc(NS(=O)(=O)c2cc(Cl)cc3c2OC(CC)C(=O)N3)c1` (stereo not drawn) [BC19750], the pIC50 was at most 4.60.

Take `O=C1CCOc2cc(S(=O)(=O)Nc3cccc(Cl)c3)c(Br)cc2N1` [BC19655]: the negative-log IC50 (pIC50) is at most 4.60. The figure for `COc1ccc(NS(=O)(=O)c2cc(Cl)cc3c2OC(C)C(=O)N3)cc1Cl` (stereo not drawn) [BC19292] is 4.60 to 6.00; for `CCC1Oc2c(cc(Cl)cc2S(=O)(=O)Nc2ccc(OC(F)(F)F)cc2)NC1=O` (stereo not drawn) [BC19734] it is 4.60 to 6.00; for `O=C1COc2c(cc(Br)cc2S(=O)(=O)Nc2ccc(F)c(F)c2)N1` [BC19177] it is 4.60 to 6.00.

As to `CC(C)CNS(=O)(=O)c1cc(Br)cc2c1OC(C)C(=O)N2` (stereo not drawn) [BC19227], the negative-log IC50 (pIC50) was at most 4.60. Regarding `CCc1ccc(NS(=O)(=O)c2cc(Br)cc3c2OCCC(=O)N3)cc1` [BC19686], the negative-log IC50 (pIC50) was 4.60 to 6.00. With `CC1C(=O)Nc2ccc(S(=O)(=O)N3CCCC3)cc2N1C(=O)N1CCOCC1` (stereo not drawn) [BC19297] the figure was at most 4.60; with `CC1Oc2cc(S(=O)(=O)Nc3cccc(Cl)c3)c(Br)cc2N(C)C1=O` (stereo not drawn) [BC19905], at most 4.60. In the case of `O=C1COc2c(cc(Br)cc2S(=O)(=O)NCCc2ccc(OC(F)(F)F)cc2)N1` [BC19383], the pIC50 was at most 4.60.

As for `CCC1Oc2cc(S(=O)(=O)NCCc3ccc(OC(F)(F)F)cc3)c(Br)cc2NC1=O` (stereo not drawn) [BC19373], the negative-log IC50 (pIC50) is at most 4.60. In the case of `O=C1NCCOc2c1cc(Br)cc2S(=O)(=O)Nc1ccccc1` [BC19553], the pIC50 was at most 4.60. The figure for `CC(C)CC1Oc2cc(S(=O)(=O)Nc3ccc(F)c(F)c3)c(Br)cc2NC1=O` (stereo not drawn) [BC19760] is 4.60 to 6.00. The figure for `CC1Oc2c(cc(Cl)cc2S(=O)(=O)Nc2ccc(Cl)cc2)NC1=O` (stereo not drawn) [BC19697] is at most 4.60; for `CC1Oc2cc(S(=O)(=O)Nc3ccccc3)c(Cl)cc2NC1=O` (stereo not drawn) [BC19206] it is at most 4.60; for `Cc1ccc(NS(=O)(=O)c2cc3c(cc2Cl)NC(=O)C(C)O3)cc1F` (stereo not drawn) [BC19700] it is 4.60 to 6.00.

As for `CC1Oc2c(cc(Cl)cc2S(=O)(=O)Nc2ccc(C(C)C)cc2)NC1=O` (stereo not drawn) [BC19705], the negative-log IC50 (pIC50) is 4.60 to 6.00.

In the case of `CC(C)CC1Oc2cc(S(=O)(=O)Nc3ccc(C(C)C)cc3)c(Br)cc2NC1=O` (stereo not drawn) [BC19766], the pIC50 was at most 4.60. With `COc1ccc(NS(=O)(=O)c2cc3c(cc2Cl)NC(=O)C(C)O3)cc1Cl` (stereo not drawn) [BC19280] the figure was 4.60 to 6.00; with `CCC1Oc2cc(S(=O)(=O)Nc3ccc(OC)cc3)c(Br)cc2N(C)C1=O` (stereo not drawn) [BC19936], at most 4.60; with `Cc1ccc(NS(=O)(=O)c2cc3c(cc2Cl)NC(=O)CO3)cc1Cl` [BC19165], 4.60 to 6.00. With `CCCNS(=O)(=O)c1cc(Br)cc2c1OC(CC)C(=O)N2` (stereo not drawn) [BC19229] the figure was at most 4.60; with `CCc1ccc(NS(=O)(=O)c2cc3c(cc2Cl)NC(=O)C(C)O3)cc1` (stereo not drawn) [BC19702], at most 4.60. As to `CC1Oc2cc(S(=O)(=O)Nc3cccc(F)c3)c(Cl)cc2NC1=O` (stereo not drawn) [BC19713], the pIC50 is 4.60 to 6.00. With `CS(=O)(=O)c1cc2c(c(S(=O)(=O)Nc3ccc(F)cc3Cl)c1)OCC(=O)N2` [BC19428] the figure was at most 4.60. With `CCC1Oc2cc(S(=O)(=O)Nc3ccc(C)c(Cl)c3)c(Cl)cc2NC1=O` (stereo not drawn) [BC19745] the figure was 4.60 to 6.00; with `CC(C)CC1Oc2cc(S(=O)(=O)Nc3ccc(OC(F)(F)F)cc3)c(Br)cc2NC1=O` (stereo not drawn) [BC19758], at most 4.60. `CC1Oc2c(cc(Br)cc2S(=O)(=O)N2CCOCC2)NC1=O` (stereo not drawn) [BC19226]: the negative logarithm of the IC50 (pIC50) was at most 4.60.
